Test system: skin surface
Assay: Body shampoo streak of 0.1% EtNic against placebo on the other side (erythema meter, Cyclops pyrometer)
Type: in vivo, human
Set-up: ERYTHEMA METER AN / ERYTHEMA METER FA / ERYTHEMA METER UA / ERYTHEMA METER BR / ERYTHEMA METER SH / ERYTHEMA METER WA / ERYTHEMA METER HI / ERYTHEMA METER TH / ERYTHEMA METER CA: scale not given here; TEMPERATURE CHANGE FA / TEMPERATURE CHANGE UA / TEMPERATURE CHANGE BR / TEMPERATURE CHANGE SH / TEMPERATURE CHANGE WA / TEMPERATURE CHANGE HI / TEMPERATURE CHANGE TH / TEMPERATURE CHANGE CA / TEMPERATURE CHANGE AN: unit not given here
Details: for ERYTHEMA METER AN / TEMPERATURE CHANGE AN / ERYTHEMA METER CA / TEMPERATURE CHANGE CA / ERYTHEMA METER HI / TEMPERATURE CHANGE HI / ERYTHEMA METER FA / TEMPERATURE CHANGE FA / ERYTHEMA METER BR / TEMPERATURE CHANGE BR / ERYTHEMA METER SH / TEMPERATURE CHANGE SH / ERYTHEMA METER TH / TEMPERATURE CHANGE TH / ERYTHEMA METER UA / TEMPERATURE CHANGE UA / ERYTHEMA METER WA / TEMPERATURE CHANGE WA: 0.1% EtNic; for ERYTHEMA METER AN / TEMPERATURE CHANGE AN: ankle; for ERYTHEMA METER CA / TEMPERATURE CHANGE CA: calf; for ERYTHEMA METER HI / TEMPERATURE CHANGE HI: hip; for ERYTHEMA METER FA / TEMPERATURE CHANGE FA: mid forearm; for ERYTHEMA METER BR / TEMPERATURE CHANGE BR: side breast; for ERYTHEMA METER SH / TEMPERATURE CHANGE SH: side shoulder; for ERYTHEMA METER TH / TEMPERATURE CHANGE TH: thigh; for ERYTHEMA METER UA / TEMPERATURE CHANGE UA: upper arm; for ERYTHEMA METER WA / TEMPERATURE CHANGE WA: waist
Method: A subject showered in the conventional way but without shampoo or soap. The redness and temperature of the skin surface was measured at symmetrical points from the mid forearm down the body to the ankle, after the excess water had been removed by light towelling. The person re-showered and between 2 and 3 grammes of shampoo according to Example 5 was streaked down one side of the body in a broad line. The body shampoo was rubbed into a lather periodically during the two minutes. A placebo shampoo of corresponding composition was applied first to one side of the body and then the time started when the shampoo with the ethyl nicotinate was applied to the other side. […] The redness was measured with the erythema meter whilst the temperature was measured with a Cyclops pyrometer at ten sites on each side. The time was taken as the mean of the two times for each pair of sites. The time course was followed for about 50 minutes. After about 210 minutes the experiment was repeated, but treating the opposite sides. The result shown below are the differences in redness and temperature of the corresponding sites.

[1] = left hand side, mean time 0.00 (baseline), difference of corresponding sites
[2] = left hand side, mean time 17.56, difference of corresponding sites
[3] = left hand side, mean time 31.56, difference of corresponding sites
[4] = left hand side, mean time 44.89, difference of corresponding sites
[5] = left hand side, mean time 59.61, difference of corresponding sites
[6] = left hand side, mean time 77.21, difference of corresponding sites
[7] = left hand side, time 10.00, mean time 10.37, difference of corresponding sites
[8] = left hand side, time 25.00, mean time 24.98, difference of corresponding sites
[9] = left hand side, time 38.00, mean time 38.30, difference of corresponding sites
[10] = left hand side, time 53.00, mean time 52.87, difference of corresponding sites
[11] = right hand side, mean time 0.00 (baseline), difference of corresponding sites
[12] = right hand side, time 10.00, mean time 9.79, difference of corresponding sites
[13] = right hand side, time 26.00, mean time 26.13, difference of corresponding sites
[14] = right hand side, time 42.00, mean time 42.25, difference of corresponding sites
[15] = right hand side, time 210.00, mean time 209.78, difference of corresponding sites
[16] = all the sites, shampoo according to Example 5, two minutes

SMILES: CCOC(=O)c1cccnc1 [EtNic, ethyl nicotinate]
- ERYTHEMA METER AN [1]: -0.53
- TEMPERATURE CHANGE AN [1]: -0.10
- TEMPERATURE CHANGE AN [2]: 0.30
- TEMPERATURE CHANGE AN [3]: -0.20
- TEMPERATURE CHANGE AN [4]: 0.70
- TEMPERATURE CHANGE AN [5]: 0.80
- TEMPERATURE CHANGE AN [6]: 0.30
- ERYTHEMA METER AN [7]: 0.29
- ERYTHEMA METER AN [8]: 0.56
- ERYTHEMA METER AN [9]: -0.43
- ERYTHEMA METER AN [10]: -0.25
- ERYTHEMA METER CA [1]: -0.26
- TEMPERATURE CHANGE CA [1]: -0.30
- TEMPERATURE CHANGE CA [2]: 2.90
- TEMPERATURE CHANGE CA [3]: 2.30
- TEMPERATURE CHANGE CA [4]: 1.10
- TEMPERATURE CHANGE CA [5]: 0.90
- TEMPERATURE CHANGE CA [6]: 0.50
- ERYTHEMA METER CA [7]: 0.26
- ERYTHEMA METER CA [8]: 0.41
- ERYTHEMA METER CA [9]: -0.17
- ERYTHEMA METER CA [10]: -0.12
- ERYTHEMA METER HI [1]: 0.03
- TEMPERATURE CHANGE HI [1]: 0.10
- TEMPERATURE CHANGE HI [2]: 1.10
- TEMPERATURE CHANGE HI [3]: 3.70
- TEMPERATURE CHANGE HI [4]: 3.30
- TEMPERATURE CHANGE HI [5]: 2.90
- TEMPERATURE CHANGE HI [6]: 2.20
- ERYTHEMA METER HI [7]: 0.74
- ERYTHEMA METER HI [8]: 0.31
- ERYTHEMA METER HI [9]: 0.12
- ERYTHEMA METER HI [10]: 0.13
- ERYTHEMA METER FA [1]: -0.65
- TEMPERATURE CHANGE FA [1]: -0.20
- TEMPERATURE CHANGE FA [2]: -0.50
- TEMPERATURE CHANGE FA [3]: 0.20
- TEMPERATURE CHANGE FA [4]: -0.30
- TEMPERATURE CHANGE FA [5]: 0.20
- TEMPERATURE CHANGE FA [6]: 0.00
- ERYTHEMA METER FA [7]: 0.39
- ERYTHEMA METER FA [8]: 0.00
- ERYTHEMA METER FA [9]: -0.06
- ERYTHEMA METER FA [10]: 0.05
- ERYTHEMA METER BR [1]: -0.12
- TEMPERATURE CHANGE BR [1]: -1.10
- TEMPERATURE CHANGE BR [2]: 4.80
- TEMPERATURE CHANGE BR [3]: 4.80
- TEMPERATURE CHANGE BR [4]: 4.30
- TEMPERATURE CHANGE BR [5]: 1.70
- TEMPERATURE CHANGE BR [6]: 1.00
- ERYTHEMA METER BR [7]: 1.09
- ERYTHEMA METER BR [8]: 0.71
- ERYTHEMA METER BR [9]: 0.91
- ERYTHEMA METER BR [10]: 0.41
- ERYTHEMA METER SH [1]: 0.00
- TEMPERATURE CHANGE SH [1]: 0.40
- TEMPERATURE CHANGE SH [2]: 3.40
- TEMPERATURE CHANGE SH [3]: 4.50
- TEMPERATURE CHANGE SH [4]: 3.30
- TEMPERATURE CHANGE SH [5]: 1.50
- TEMPERATURE CHANGE SH [6]: 0.30
- ERYTHEMA METER SH [7]: 1.08
- ERYTHEMA METER SH [8]: 1.06
- ERYTHEMA METER SH [9]: 0.77
- ERYTHEMA METER SH [10]: 0.38
- ERYTHEMA METER TH [1]: -0.23
- TEMPERATURE CHANGE TH [1]: 0.10
- TEMPERATURE CHANGE TH [2]: 3.70
- TEMPERATURE CHANGE TH [3]: 3.20
- TEMPERATURE CHANGE TH [4]: 2.50
- TEMPERATURE CHANGE TH [5]: 1.90
- TEMPERATURE CHANGE TH [6]: 1.30
- ERYTHEMA METER TH [7]: 0.47
- ERYTHEMA METER TH [8]: 0.43
- ERYTHEMA METER TH [9]: 0.28
- ERYTHEMA METER TH [10]: 0.17
- ERYTHEMA METER UA [1]: -0.28
- TEMPERATURE CHANGE UA [1]: 0.00
- TEMPERATURE CHANGE UA [2]: 3.10
- TEMPERATURE CHANGE UA [3]: 3.60
- TEMPERATURE CHANGE UA [4]: 2.70
- TEMPERATURE CHANGE UA [5]: 1.80
- TEMPERATURE CHANGE UA [6]: 1.40
- ERYTHEMA METER UA [7]: 1.35
- ERYTHEMA METER UA [8]: 0.67
- ERYTHEMA METER UA [9]: 0.82
- ERYTHEMA METER UA [10]: 0.23
- ERYTHEMA METER WA [1]: 0.03
- TEMPERATURE CHANGE WA [1]: -0.30
- TEMPERATURE CHANGE WA [2]: 4.80
- TEMPERATURE CHANGE WA [3]: 6.80
- TEMPERATURE CHANGE WA [4]: 6.40
- TEMPERATURE CHANGE WA [5]: 5.00
- TEMPERATURE CHANGE WA [6]: 3.60
- ERYTHEMA METER WA [7]: 0.66
- ERYTHEMA METER WA [8]: 0.44
- ERYTHEMA METER WA [9]: 0.79
- ERYTHEMA METER WA [10]: 0.05
- ERYTHEMA METER AN [11]: 0.08
- ERYTHEMA METER AN [12]: 0.62
- ERYTHEMA METER AN [13]: 0.57
- ERYTHEMA METER AN [14]: 0.57
- ERYTHEMA METER AN [15]: 0.53
- ERYTHEMA METER CA [11]: 0.06
- ERYTHEMA METER CA [12]: 0.87
- ERYTHEMA METER CA [13]: 0.75
- ERYTHEMA METER CA [14]: 0.58
- ERYTHEMA METER CA [15]: 0.26
- ERYTHEMA METER HI [11]: 0.44
- ERYTHEMA METER HI [12]: 0.92
- ERYTHEMA METER HI [13]: 0.55
- ERYTHEMA METER HI [14]: 0.50
- ERYTHEMA METER HI [15]: -0.03
- ERYTHEMA METER FA [11]: 0.20
- ERYTHEMA METER FA [12]: -0.28
- ERYTHEMA METER FA [13]: 0.51
- ERYTHEMA METER FA [14]: 0.41
- ERYTHEMA METER FA [15]: 0.65
- ERYTHEMA METER BR [11]: 0.06
- ERYTHEMA METER BR [12]: 1.20
- ERYTHEMA METER BR [13]: 1.48
- ERYTHEMA METER BR [14]: 0.72
- ERYTHEMA METER BR [15]: 0.12
- ERYTHEMA METER SH [11]: 0.12
- ERYTHEMA METER SH [12]: 1.81
- ERYTHEMA METER SH [13]: 1.61
- ERYTHEMA METER SH [14]: 0.81
- ERYTHEMA METER SH [15]: 0.00
- ERYTHEMA METER TH [11]: 0.07
- ERYTHEMA METER TH [12]: 0.87
- ERYTHEMA METER TH [13]: 0.43
- ERYTHEMA METER TH [14]: 0.04
- ERYTHEMA METER TH [15]: 0.23
- ERYTHEMA METER UA [11]: 0.38
- ERYTHEMA METER UA [12]: 0.89
- ERYTHEMA METER UA [13]: 1.40
- ERYTHEMA METER UA [14]: 0.74
- ERYTHEMA METER UA [15]: 0.28
- ERYTHEMA METER WA [11]: 0.06
- ERYTHEMA METER WA [12]: 1.16
- ERYTHEMA METER WA [13]: 1.09
- ERYTHEMA METER WA [14]: 0.70
- ERYTHEMA METER WA [15]: -0.03
- redness [16]: increase
- temperature [16]: increase
- maximum temperature difference (at the waist): seven
